Laboratory results published in US20080085885A1, “Inhibition Of Voluntary Ethanol Consumption With Non-Peptidyl Melanocortin-4 Receptor Agonists” (priority 2004, published 2008).
Entries after “also recorded” stand apart in the source; their conditions may differ.

How the values were obtained:
hMC1bR = hMC1bR (Homo sapiens, UniProt Q01726); experiment: cAMP functional assay (agonist); type: cell-based; details: functional selectivity stated in text; 45 min
Method: Cells (for example, CHO- or L-cells or other eukaryotic cells) expressing a human melanocortin receptor (see e.g. Yang-YK; Ollmann-MM; Wilson-BD; Dickinson-C; Yamada-T; Barsh-GS; Gantz-I; Mol-Endocrinol. 1997 March; 11(3): 274-80) were dissociated from tissue culture flasks by rinsing with Ca and Mg free phosphate buffered saline (14190-136, Life Technologies, Gaithersburg, Md.) and detached following 5 min incubation at 37° C. with enzyme free dissociation buffer (S-014-B, Specialty Media, Lavellette, N.J.). Cells were collected by centrifugation and resuspended in Earle's Balanced Salt Solution (14015-069, Life Technologies, Gaithersburg, Md.) with additions of 10 mM HEPES pH 7.5, 5 mM MgCl2, 1 mM glutamine and 1 mg/ml bovine serum albumin. Cells were counted and diluted to 1 to 5×10^6/mL. The phosphodiesterase inhibitor 3-isobutyl-1-methylxanthine was added to cells to 0.6 mM.
Agonist Assay: Test compounds were diluted in dimethylsulfoxide (DMSO) (10^−5 to 10^−10 M) and 0.1 volume of compound solution was added to 0.9 volumes of cell suspension; the final DMSO concentration was […]. After room temperature incubation for 45 min, cells were lysed by incubation at 100° C. for 5 min to release accumulated cAMP.
cAMP was measured in an aliquot of the cell lysate with the Amersham (Arlington Heights, Ill.) cAMP detection assay (RPA556). […]

Male Wistar rats [1] = experiment: Maintenance operant ethanol self-administration (animal model of alcohol reward); type: in vivo, rat
Method: (§1) FIG. 1. Operant training for oral ethanol across 30 minute test sessions in rats (n=8-10). Rats were trained on a continuous reinforcement (FR-1) schedule using a saccharine fading procedure and once stable levels of ethanol self-administration (10% w/v) were achieved, testing was initiated. Test 1 examined the effects of melanocortin 4 receptor agonist, Compound A, on maintenance levels of ethanol self-administration and Test 2 examined the effects of Compound A on the Alcohol Deprivation Effect (ADE).
FIG. 2. […] Operant training for oral ethanol in 30 minute test sessions in rats (n=8-10). Melanocortin 4 receptor agonist, Compound A, was administered at 0, 5, 10 or 20 mg/kg, po prior to testing. […] The symbol * indicates a significant difference between the vehicle and drug treated groups (p<0.05).
Animals: Male Wistar rats were used in all experiments. Body weight was 180-200 g at the start of the experiments. Rats were housed 2-3 per cage with food and water available ad libitum. Lights were on a 12-hour light/dark cycle, with lights on at 0600. All procedures met the guidelines of the National Institutes of Health Guide for the Care and Use of Laboratory Animals.
Operant Ethanol Self-Administration: Ethanol dilutions (5, 8 and 10% w/v) were prepared with 95% ethyl alcohol and tap water. Saccharin (Sigma Chemical Co., St. Louis, Mo.) was added to water or ethanol solutions to achieve a concentration of 0.2% w/v. Standard operant chambers (Med Associates, VT) housed in sound-attenuated chambers were used for ethanol self-administration. Syringe pumps dispensed ethanol and water into two stainless steel reservoirs mounted 4 cm above the floor of the chamber, centered between the two operant levers. The two retractable levers were located 4.5 cm to either side of the fluid reservoir. Fluid delivery and recording of operant responding were controlled by microcomputer. Rats were trained on a continuous reinforcement fixed-ratio 1 (FR1) schedule to self-administer oral alcohol (10% w/v, 0.1 ml per delivery) or water in 30 minute sessions. […]

Male Wistar rats [2] = experiment: Alcohol deprivation effect (ADE) after 10 day deprivation (animal model of alcohol relapse); type: in vivo, rat; details: for Alcohol deprivation effect (ethanol consumed after 10 day deprivation): po
Method: as §1
FIG. 3. […] Operant training for oral ethanol in 30 minute test sessions in rats (n=8-10). Following the maintenance self-administration test, rats were rebaselined prior to being confined to their home-cages for a 10 day deprivation period. Melanocortin 4 receptor agonist, Compound A was administered at 0, 5, 10 or 20 mg/kg, po prior to reintroduction to the test chambers following deprivation. […] The symbol * indicates a significant difference between baseline and drug treated groups (p<0.05). The symbol # indicates a significant difference between vehicle treated (ADE) and drug treated groups (p<0.05).
Method: Methods for this experiment were as described in EXAMPLE 3. Following the maintenance ethanol self-administration experiment, rats were re-baselined and once reliable levels of alcohol-reinforced self-administration were achieved, rats were confined to their home cages for a 10-day period. Prior to reintroduction to the test chamber, animals were injected with Compound (0, 5, 10 and 20 mg/kg).

AA rats = AA rats with established ethanol intake; Ploj et al. 2002; cited from earlier work

Chain of hMC1bR (Q01726 whole entry): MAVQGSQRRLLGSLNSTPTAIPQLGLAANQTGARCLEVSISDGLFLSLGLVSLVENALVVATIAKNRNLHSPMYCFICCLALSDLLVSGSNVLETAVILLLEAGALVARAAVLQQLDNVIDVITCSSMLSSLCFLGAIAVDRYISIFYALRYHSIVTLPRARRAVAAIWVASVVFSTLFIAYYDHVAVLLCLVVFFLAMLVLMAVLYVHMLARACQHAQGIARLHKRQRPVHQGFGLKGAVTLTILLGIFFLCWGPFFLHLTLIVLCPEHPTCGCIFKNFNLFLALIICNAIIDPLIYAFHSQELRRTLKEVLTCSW

Compound	EC50 for melanocortin 4 receptor lower than for melanocortin 1 receptor (hMC1bR)	Ethanol self-administration (10% w/v), 30 minute session (Male Wistar rats [1]; 20 mg/kg, po, vs vehicle/baseline, p<0.05)	Water consumption (Male Wistar rats [1]; maintenance test, any dose (5, 10, 20 mg/kg, po))	Reduction of ethanol self administration (Male Wistar rats [1]; male Wistar rats, dose dependent, FIG. 2)	Alcohol deprivation effect (ethanol consumed after 10 day deprivation) (Male Wistar rats [2]; 5 mg/kg)	Alcohol deprivation effect (ethanol consumed after 10 day deprivation) (Male Wistar rats [2]; 10 mg/kg)	Alcohol deprivation effect (ethanol consumed after 10 day deprivation) (Male Wistar rats [2]; 20 mg/kg)	Water consumption (Male Wistar rats [2]; ADE test, any dose (5, 10, 20 mg/kg, po))	Alcohol deprivation effect, overall statement (Male Wistar rats [2]; male Wistar rats, 10 day forced deprivation, FIG. 3)	Voluntary ethanol drinking (AA rats)
CC[C@H](NC(C)=O)c1cc(Cl)ccc1C1CCN(C(=O)C2CN(C(C)(C)C)C[C@H]2c2ccc(F)cc2F)CC1 (stereo partly shown) [Compound A]	at least 120 fold	significant reductions from baseline levels; also recorded: significant reduction in ethanol self-administration	not significantly altered; also recorded: not significantly changed; also recorded: no significant effects on water consumption	approximately 50%	blocking the ADE; also recorded: significant attenuation of the alcohol deprivation effect	blocking the ADE; also recorded: significant attenuation of the alcohol deprivation effect	significant decrease below baseline levels of consumption; also recorded: further reduction below baseline levels	not significantly altered; also recorded: not significantly changed	reduced the increase in ethanol consumption	
MTII										significantly reduces voluntary ethanol drinking
